Data set [1] in a line: MTT cell viability assay (cytotoxicity) in J774 macrophages. Type of data set: cell-based, murine. Particulars: mouse. How it is done: (§1) The potential cytotoxicity of embelin (1) together with derivatives (4a–4m, 5a–5d, 6a–6m) was tested in cardiomyocytes and macrophages in order to ensure that compounds lack toxicity also in immune cells. Cell viability was determined by the MTT assay.[58] Four dihydroquinoline derivatives (4b, 4f, 4i, and 4m) and six quinoline compounds (6a, 6d, 6e, 6i, 6k, and 6m) maintained higher viable cell rates in both types of cells. IC50 values of these derivatives were higher than 40 μM and were selected for further analysis.
(§2) J774A.1 murine macrophage cells, H9c2 embryonic rat heart-derived cells, and MCF-7 breast cancer cells were purchased from American Type Cell Culture (ATCC, Manassas, VA, USA). Cells were cultured in Dulbecco’s modified Eagle medium with 10% fetal bovine serum and 1% penicillin/streptomycin (Lonza) and were maintained at 37 °C in a humidified incubator containing 5% CO2.
(§3) Cell viability was assessed by conducting an MTT [3-(4,5-dimethylthiazol-2-yl)-2,5-diphenyltetrazolium bromide dye] assay. Briefly, J 774A.1, H9c2, and MCF7 cells were seeded in 96-well plates for 24 h. Then, cells were treated with DOX in the absence or presence of compounds. MTT (Sigma) reagent was added to the medium for 1 h at 37 °C. Then, the formazan was dissolved in dimethyl sulfoxide (DMSO, 100 μL). Absorbance was measured at 540 nm with a microplate reader (BMG Labtech).

Data set [2] in a line: MTT cell viability assay (cytotoxicity) in H9c2 cardiomyocytes. Format: cell-based, rat. Particulars: rat, H9c2 cardiomyocytes, 24 h, MTT; for viability at 24 h, 10 µM / viability at 24 h, 20 µM: mean ± SD, n = 3. The method, then: as §1, §2, §3
Background: Formazan colour is commonly taken as a measure of viable cells.

What is called viability is a per cent measure of how many cells are alive, often set against a control. Read a low viability as more harm to the cells. One may read the melting point as the temperature of the solid-liquid transition. The IC50 is the concentration that gives 50% inhibition. A high value points to weaker potency in that assay.

In the case of `CCCCCCCCCCCC1=C(O)C(=O)C2=C(Nc3ccccc3C2c2ccsc2)C1=O` (stereo not drawn) [Compound 4h, 2-Hydroxy-9-(thiophen-3-yl)-3-undecyl-9,10-dihydroacridine-1,4-dione], the melting point fell in the range of 190 to 192 °C. In data set [1], this compound displayed a viability at 24 h, 10 µM of 84.9 ± 2.6% and a viability at 24 h, 20 µM of 51.4 ± 2.9%. In addition, in data set [2], the viability at 24 h, 10 µM amounted to 92.5 ± 6.6% and the viability at 24 h, 20 µM worked out at 75.8 ± 2.3%.
For `CCCCCCCCCCCC1=C(O)C(=O)C2=C(Nc3ccccc3C2c2ccc(OC)c(OC)c2)C1=O` (stereo not drawn) [Compound 4j, 2-Hydroxy-9-(3,4-dimethoxyphenyl)-3-undecyl-9,10-dihydroacridine-1,4-dione] the same measures were 152 to 154 °C, 89.1 ± 5.5%, 36.9 ± 3.8%, 68.9 ± 3.6% and 60.6 ± 4.9%.
For `CCCCCCCCCCCC1=C(O)C(=O)C2=C(Nc3ccc(OC)cc3C2c2ccc([N+](=O)[O-])cc2)C1=O` (stereo not drawn) [Compound 4k, 2-Hydroxy-7-methoxy-9-(4-nitrophenyl)-3-undecyl-9,10-dihydroacridine-1,4-dione] the same measures were 153 to 155 °C, 55.6 ± 6.7%, 37.8 ± 4.8%, 99.7 ± 1.1% and 90.7 ± 1.5%.
`CCCCCCCCCCCC1=C(O)C(=O)C2=C(Nc3cc(C)cc(C)c3C2c2ccc([N+](=O)[O-])cc2)C1=O` (stereo not drawn) [Compound 4l, 2-Hydroxy-6,8-dimethyl-9-(4-nitrophenyl)-3-undecyl-9,10-dihydroacridine-1,4-dione] had a melting point of 260 to 262 °C. Besides, in data set [1], the viability at 24 h, 10 µM amounted to 46.7 ± 6.6% and the viability at 24 h, 20 µM amounted to 33.1 ± 4.5%. Besides, in data set [2], the viability at 24 h, 10 µM was 98.2 ± 6.6% and the viability at 24 h, 20 µM stood at 88.3 ± 6.1%.
As for `CCCCCCCCCCCC1=C(O)C(=O)C2=C(Nc3ccc(Br)cc3C2c2ccc([N+](=O)[O-])cc2)C1=O` (stereo not drawn) [Compound 4m, 7-Bromo-2-hydroxy-9-(4-nitrophenyl)-3-undecyl-9,10-dihydroacridine-1,4-dione], the melting point lay within 236 to 237 °C. In data set [1], the IC50 at 24 h was over 40 µM; the viability at 24 h, 10 µM was 94.7 ± 4.2%; the viability at 24 h, 20 µM amounted to 77.2 ± 4.9%. In data set [2] (H9c2 cardiomyocytes (embryonic heart-derived cells), stated for both types of cells), this compound showed a 50% inhibitory concentration (IC50) at 24 h of over 40 µM. In data set [2], the viability at 24 h, 10 µM turned out to be 96.5 ± 5.5% and the viability at 24 h, 20 µM came to 96.2 ± 4.8%.

Source of the values: publication PMC9972480, “Synthesis of Quinoline and Dihydroquinoline Embelin Derivatives as Cardioprotective Agents” (Journal of Natural Products, 2023).
